# Laboratory results taken from US12329850B2, “Microalgae having high loliolide productivity” (KOREA RESEARCH INSTITUTE OF BIOSCIENCE AND BIOTECHNOLOGY, priority 2019, dated 2025).
# Experiments:
# Format in all cases: cell-based
# [1] = tested on: human dermal fibroblasts (HDFs); assay: WST-1 assay, cytotoxicity of loliolide on human dermal fibroblasts; details: loliolide up to 20 μg/mL, 24 hours
# Protocol: The purification of loliolide was performed in the same manner as in Example 3, and an extract was obtained using ethyl acetate from a lyophilized culture of the Scenedesmus sp. HS4 microalgae of the present invention, and loliolide was purified through fractionation/concentration. In the case of culturing human dermal cells, human dermal fibroblasts purchased from Lonza (Basel, Switzerland) were cultured in a 5% CO2 cell incubator at 37° C. using a medium in which 10% fetal bovine serum (FBS, 51480, Biowest, France) was further added to Dulbecco's modified Eagle's medium (DMEM medium, L0103-500, Biowest, France).
# First, whether loliolide has cytotoxicity against human dermal fibroblasts was confirmed through WST-1 assay. After dispensing the cultured human dermal fibroblasts into a 96-well plate at 4×10^3 cells/well and culturing for 24 hours, the loliolide purified from Scenedesmus sp. HS4 microalgae was treated at concentrations of 0 μg/mL, 2 μg/mL, 5 μg/mL, 10 μg/mL, and 20 μg/mL, respectively. After 24 hours have elapsed after the loliolide treatment, the solution was treated in the medium using a WST-1 assay kit (EZ-cytox cell viability kit, Itshio, Korea), the absorbance was measured at a wavelength of 450 nm with a microplate reader (iMark microplate reader, Bio-Rad, USA).
# ColA1 gene = assay: qRT-PCR, expression of collagen gene in UVB-irradiated human dermal fibroblasts; details: 24 hours, UVB-only control 30%
# Protocol: (§1) First, human dermal fibroblasts cultured in the same manner as in Example 6 were dispensed in a 96-well plate in an amount of 4×10^3 cells/well, and UVB was irradiated to the medium at 10 mJ/cm^2. […] Thereafter, the changes in expression levels of the ColA1 gene and the MMP1 gene were measured through quantitative real time-PCR (qRT-PCR). During this process, SYBR green I (Invitrogen), which is a fluorescent material, was used to examine the amount of the DNA product amplified by PCR in real time. Specifically, 0.2 μM of the primers prepared with the sequences shown in Table 3 below were added to a PCR tube, and mixed with 50 mM KCl, 20 mM Tris/HCl (pH 8.4), 0.8 mM dNTP, 0.5 U DNA polymerase (Extaq DNA polymerase), 3 mM MgCl2 and 1×SYBR Green I so as to prepare a reaction solution. Then, PCR was performed using a PCR device (Linegene K, BioER, China)(PCR conditions: primary denaturation for 3 minutes, denaturation at 94° C. for 30 seconds, annealing at 58° C. for 30 seconds, and polymerization at 72° C. for 30 seconds, a total of 40 cycles), and the fluorescence intensity was measured for each cycle.
# [2] = tested on: human dermal fibroblasts irradiated with UVB; assay: WST-1 assay, cell viability recovery in UVB-irradiated human dermal fibroblasts; details: loliolide 2 μg/mL for 6 hours, then UVB 10 mJ/cm^2, 24 hours
# Protocol: Human dermal fibroblasts cultured in the same manner as in Example 6 were dispensed in a 96-well plate by 4×10^3 cells/well, and loliolide was treated at concentrations of 2 μg/mL, 5 μg/mL, 10 μg/mL, and 20 μg/mL for 6 hours. Then, the medium was irradiated with UVB at 10 mJ/cm^2 and cultured further for 24 hours, and cell viability was measured by performing a WST-1 assay in the same manner as in Example 6.
# MMP1 gene = assay: qRT-PCR, expression of collagenase gene in UVB-irradiated human dermal fibroblasts; details: 24 hours, UVB-only control 2.4-fold increase
# Protocol: as §1
# [3] = UVB 10 mJ/cm^2, then loliolide 5 μg/mL
# [4] = UVB 10 mJ/cm^2, then loliolide 10 μg/mL
structure (smiles),measurement,setting,value
CC1(C)C[C@H](O)C[C@@]2(C)OC(=O)C=C12 [loliolide],toxicity to human dermal fibroblasts (relative viability vs untreated control),[1],not toxic
same,"expression level of ColA1 gene, based on cells without any treatment",ColA1 gene; [3],55%
same,"expression level of ColA1 gene, based on cells without any treatment",ColA1 gene; [4],65%
same,cell viability compared to the UVB control group,[2],significantly increased
same,expression level of MMP1 gene,MMP1 gene; [3],25%
same,expression level of MMP1 gene,MMP1 gene; [4],46%
